The source of these data is PubChem BioAssay AID256 (DTP/NCI, 2004).

Inconclusive results and toxic doses are left out.

The subject of the assay is CD2F1 mice, L1210 leukemia ip, survival T/C. Nature of the assay: NCI In Vivo Anticancer Drug Screen. Data for tumor model L1210 Leukemia (intraperitoneal) in CD2F1 (CDF1) mice. Particulars: endpoint: mean survival time, higher = longer survival. A digest of the protocol:
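Transplantable tumor in mice; compound-treated vs vehicle-treated groups. Read-out = treated/control ratio of the measured endpoint.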

Setting [1] is: dose: 12.5 mg/kg/injection, schedule: Q04DX003 (ip), vehicle: saline with Tween-80.
Setting [2] is: dose: 100.0 mg/kg/injection, schedule: Q01DX009 (ip), vehicle: saline with Tween-80.
Setting [3] is: dose: 200.0 mg/kg/injection, schedule: Q01DX009 (ip), vehicle: saline with Tween-80.
[4] abbreviates: dose: 400.0 mg/kg/injection, schedule: Q01DX009 (ip), vehicle: saline with Tween-80.
Where [5] appears, read: dose: 50.0 mg/kg/injection, schedule: Q01DX009 (ip), vehicle: saline with Tween-80.
Where [6] appears, read: dose: 100.0 mg/kg/injection, schedule: Q01DX001 (ip), vehicle: saline.
Where [7] appears, read: dose: 50.0 mg/kg/injection, schedule: Q01DX009 (ip), vehicle: Klucel (hydroxypropylcellulose) (HPC).
Where [8] appears, read: dose: 100.0 mg/kg/injection, schedule: Q01DX009 (ip), vehicle: Klucel (hydroxypropylcellulose) (HPC).
Where [9] appears, read: dose: 200.0 mg/kg/injection, schedule: Q01DX009 (ip), vehicle: Klucel (hydroxypropylcellulose) (HPC).
The mark [10] stands for this setting: dose: 100.0 mg/kg/injection, schedule: Q04DX003 (ip), vehicle: saline with Tween-80.
Where [11] appears, read: dose: 200.0 mg/kg/injection, schedule: Q04DX003 (ip), vehicle: saline with Tween-80.
The mark [12] stands for this setting: dose: 400.0 mg/kg/injection, schedule: Q04DX003 (ip), vehicle: saline with Tween-80.

`CCC(C)(C[NH-])C[NH-].[Cl][Pt+2][Cl]`: the T/C reads like this: (dose: 1.56 mg/kg/injection, schedule: Q04DX003 (ip), vehicle: saline) 114 % of control; (dose: 3.12 mg/kg/injection, schedule: Q04DX003 (ip), vehicle: saline) 118 % of control; (dose: 6.25 mg/kg/injection, schedule: Q04DX003 (ip), vehicle: saline) 124 % of control; under setting [1], 285 % of control; (dose: 25.0 mg/kg/injection, schedule: Q04DX003 (ip), vehicle: saline) 312 % of control.

As to `COC(=O)C1CCCC(=O)C1C(=O)OC` (stereo unspecified), the T/C is 95 % of control (dose: 100.0 mg/kg/injection, schedule: Q01DX009 (ip), vehicle: other); 101 % of control (dose: 200.0 mg/kg/injection, schedule: Q01DX009 (ip), vehicle: other); 92 % of control (dose: 400.0 mg/kg/injection, schedule: Q01DX009 (ip), vehicle: other).

On to `CN1CCN(Cc2cn(C3CC(O)C(CO)O3)c(=O)[nH]c2=O)c2ccccc21` (stereo unspecified), for which the T/C runs as follows: (dose: 12.5 mg/kg/injection, schedule: Q01DX005 (ip), vehicle: distilled water + Tween-80) 93 % of control; (dose: 25.0 mg/kg/injection, schedule: Q01DX005 (ip), vehicle: distilled water + Tween-80) 93 % of control; (dose: 50.0 mg/kg/injection, schedule: Q01DX005 (ip), vehicle: distilled water + Tween-80) 93 % of control; (dose: 100.0 mg/kg/injection, schedule: Q01DX005 (ip), vehicle: distilled water + Tween-80) 103 % of control; (dose: 200.0 mg/kg/injection, schedule: Q01DX005 (ip), vehicle: distilled water + Tween-80) 93 % of control.

In the case of `Cc1ccccc1S(=O)(=O)/C(=C(/I)c1ccccc1)c1ccccc1`, the T/C reads like this: (dose: 50.0 mg/kg/injection, schedule: Q04DX003 (ip), vehicle: saline) 94 % of control; (dose: 100.0 mg/kg/injection, schedule: Q04DX003 (ip), vehicle: saline) 102 % of control; (dose: 200.0 mg/kg/injection, schedule: Q04DX003 (ip), vehicle: saline) 98 % of control.

As for `CCOC(=O)CCC1(C(=O)OC)C(=O)CCCCC/C=C/1C(=O)OC` (stereo unspecified), the T/C by setting is: under setting [2], 101 % of control; under setting [3], 93 % of control; under setting [4], 96 % of control.

Regarding `Oc1ccc(N=Cc2ccccc2O)cc1`, the T/C runs as follows: (dose: 178.0 mg/kg/injection, schedule: Q04DX003 (ip), vehicle: carboxymethylcellulose (CMC)) 101 % of control; (dose: 267.0 mg/kg/injection, schedule: Q04DX003 (ip), vehicle: carboxymethylcellulose (CMC)) 102 % of control; (dose: 400.0 mg/kg/injection, schedule: Q04DX003 (ip), vehicle: carboxymethylcellulose (CMC)) 98 % of control; (dose: 600.0 mg/kg/injection, schedule: Q04DX003 (ip), vehicle: carboxymethylcellulose (CMC)) 101 % of control.

Turning to `O=C(CNC(=O)c1ccccc1)N/N=C/c1cccc([N+](=O)[O-])c1`, the T/C under setting [2] was 90 % of control and the T/C under setting [4] is 89 % of control.

As to `C=CCOC(=N)C(Cl)(Cl)Cl`, the T/C is 106 % of control under setting [5] and 95 % of control under setting [2].

Turning to `O=C1C2CC=CCC2C(=O)C2CC=CCC12` (stereo unspecified), the T/C is, setting by setting: (dose: 100.0 mg/kg/injection, schedule: Q01DX001 (ip), vehicle: saline with Tween-80) 92 % of control; (dose: 200.0 mg/kg/injection, schedule: Q01DX001 (ip), vehicle: saline with Tween-80) 92 % of control; (dose: 400.0 mg/kg/injection, schedule: Q01DX001 (ip), vehicle: saline with Tween-80) 101 % of control.

Take `CC1(C)C2(C)CC12C` (stereo unspecified): the T/C was 97 % of control (dose: 1.25 mg/kg/injection, schedule: Q04DX002 (ip), vehicle: saline with Tween-80); 97 % of control (dose: 2.5 mg/kg/injection, schedule: Q04DX002 (ip), vehicle: saline with Tween-80); 97 % of control (dose: 5.0 mg/kg/injection, schedule: Q04DX002 (ip), vehicle: saline with Tween-80); 97 % of control (dose: 10.0 mg/kg/injection, schedule: Q04DX002 (ip), vehicle: saline with Tween-80).

Regarding `CN(C)c1ccc(N2C(N)=NC(N)=NC2(C)C)cc1`, the T/C reads like this: (dose: 25.0 mg/kg/injection, schedule: Q01DX001 (ip), vehicle: saline) 101 % of control; (dose: 50.0 mg/kg/injection, schedule: Q01DX001 (ip), vehicle: saline) 101 % of control; under setting [6], 98 % of control.

As for `CC(C)C(=O)C(C)(C)c1nc2ccccc2[nH]1`, the T/C was 106 % of control (dose: 100.0 mg/kg/injection, schedule: Q04DX002 (ip), vehicle: saline with Tween-80); 98 % of control (dose: 200.0 mg/kg/injection, schedule: Q04DX002 (ip), vehicle: saline with Tween-80); 87 % of control (dose: 400.0 mg/kg/injection, schedule: Q04DX002 (ip), vehicle: saline with Tween-80).

For `CC(=O)N(C)N(Cc1ccc(C#N)cc1)C(C)=O`, the T/C by setting is: (dose: 25.0 mg/kg/injection, schedule: Q01DX009 (ip), vehicle: Klucel (hydroxypropylcellulose) (HPC)) 97 % of control; under setting [7], 93 % of control; under setting [8], 97 % of control; under setting [9], 97 % of control; (dose: 400.0 mg/kg/injection, schedule: Q01DX009 (ip), vehicle: Klucel (hydroxypropylcellulose) (HPC)) 98 % of control.

Consider `Cc1c(F)cccc1[N+](=O)[O-]`, for which the T/C is 101 % of control under setting [5], 104 % of control under setting [2] and 98 % of control under setting [3].

In the case of `c1ccc(CCN2COc3c(ccc4cccnc34)C2)cc1`, the T/C by setting is: under setting [1], 102 % of control; (dose: 25.0 mg/kg/injection, schedule: Q04DX003 (ip), vehicle: saline with Tween-80) 91 % of control; (dose: 50.0 mg/kg/injection, schedule: Q04DX003 (ip), vehicle: saline with Tween-80) 98 % of control.

As for `CCC1C(=O)NC(=O)NC1=O`, the T/C by setting is: under setting [2], 96 % of control; under setting [10], 98 % of control; under setting [3], 94 % of control; under setting [11], 94 % of control; under setting [4], 93 % of control; under setting [12], 96 % of control.

Turning to `O=C(NO)c1ccc(O)c(O)c1O`, the T/C reads like this: (dose: 25.0 mg/kg/injection, schedule: Q01DX009 (ip), vehicle: distilled water + Tween-80) 110 % of control; (dose: 50.0 mg/kg/injection, schedule: Q01DX009 (ip), vehicle: distilled water + Tween-80) 108 % of control; (dose: 100.0 mg/kg/injection, schedule: Q01DX009 (ip), vehicle: distilled water + Tween-80) 116 % of control.

With `Cc1ccc(S(=O)(=O)OC2C(O)C(CO)OC2n2c(Br)c(C#N)c3c(N)ncnc32)cc1` (stereo unspecified), the T/C by setting is: (dose: 25.0 mg/kg/injection, schedule: Q01DX005 (ip), vehicle: saline with Tween-80) 93 % of control; (dose: 50.0 mg/kg/injection, schedule: Q01DX005 (ip), vehicle: saline with Tween-80) 102 % of control; (dose: 100.0 mg/kg/injection, schedule: Q01DX005 (ip), vehicle: saline with Tween-80) 100 % of control; (dose: 200.0 mg/kg/injection, schedule: Q01DX005 (ip), vehicle: saline with Tween-80) 96 % of control.

`CC(=O)Nc1nc(C)c(CCCOc2ccc([N+](=O)[O-])cc2)c(=O)[nH]1`: the T/C is, setting by setting: under setting [7], 97 % of control; under setting [8], 90 % of control; under setting [9], 90 % of control.

As for `O=C(NC1CCCCC1)NC1CCCCC1`, the T/C was 100 % of control under setting [10], 98 % of control under setting [11] and 93 % of control under setting [12].

For `CC(=O)O.[Ag]`, the T/C by setting is: (dose: 5.0 mg/kg/injection, schedule: Q01DX001 (ip), vehicle: saline) 93 % of control; (dose: 10.0 mg/kg/injection, schedule: Q01DX001 (ip), vehicle: saline) 96 % of control; (dose: 20.0 mg/kg/injection, schedule: Q01DX001 (ip), vehicle: saline) 97 % of control; (dose: 40.0 mg/kg/injection, schedule: Q01DX001 (ip), vehicle: saline) 100 % of control; (dose: 80.0 mg/kg/injection, schedule: Q01DX001 (ip), vehicle: saline) 100 % of control; under setting [6], 91 % of control.
